We go through three compounds from US10442796B2, “2,3,5-substituted thiophene compound as protein kinase inhibitor” (KOREA INSTITUTE OF SCIENCE AND TECHNOLOGY, priority 2016, dated 2019).

What all share (test): Growth inhibitory activity against Ba/F3 cell line
Common to all, as to type: cell-based

The subject of one assay is Parental Ba/F3 cells. Particulars: BaF3; Parental Ba/F3 with mouse IL-3 1 ng/mL; 72 hours; cell titer glo. The procedure: (§1) A Ba/F3 cell line expressing an FLT3 mutation gene was cultured in a culture solution including 90% RPMI, 10% FBS, and an antibiotic (Welgene). 100 uL of the Ba/F3 cell line was put into each of 5,000 wells of a TC-treated 96 well plate (SPL), and then 1 uL of a test compound diluted in dimethylsulfoxide (diluted for each 3 paint from a concentration of 1 mM, total 10 concentrations) was each injected thereinto. Thereafter, the resulting cell lines were incubated in a cell culture incubator for 72 hours. 50 uL of a cell titer glo (Promega) solution was added thereto, the resulting mixture was stored at room temperature for 10 minutes, and then the light emission intensity was measured by using a reader (Envision, PerkinElmer). The light emission intensity was shown as a graph for each final concentration of the test compound, and the GI50 value was obtained by using a Prism 5.0 (GraphPad) software.
A parental Ba/F3 cell line having no FLT3 mutation gene was cultured by using a culture solution supplemented with mouse IL-3 (R&D Systems), such that a final concentration became 1 ng/mL in the culture solution including 90% RPMI, 10% FBS, and an antibiotic (Welgene). The activity was measured by a method which is the same as described above.

The target in the next assay is T1, FLT3-ITD Ba/F3 cells (Homo sapiens, UniProt P36888, cells depend on it, form not given).
T1 sequence (P36888 1-993): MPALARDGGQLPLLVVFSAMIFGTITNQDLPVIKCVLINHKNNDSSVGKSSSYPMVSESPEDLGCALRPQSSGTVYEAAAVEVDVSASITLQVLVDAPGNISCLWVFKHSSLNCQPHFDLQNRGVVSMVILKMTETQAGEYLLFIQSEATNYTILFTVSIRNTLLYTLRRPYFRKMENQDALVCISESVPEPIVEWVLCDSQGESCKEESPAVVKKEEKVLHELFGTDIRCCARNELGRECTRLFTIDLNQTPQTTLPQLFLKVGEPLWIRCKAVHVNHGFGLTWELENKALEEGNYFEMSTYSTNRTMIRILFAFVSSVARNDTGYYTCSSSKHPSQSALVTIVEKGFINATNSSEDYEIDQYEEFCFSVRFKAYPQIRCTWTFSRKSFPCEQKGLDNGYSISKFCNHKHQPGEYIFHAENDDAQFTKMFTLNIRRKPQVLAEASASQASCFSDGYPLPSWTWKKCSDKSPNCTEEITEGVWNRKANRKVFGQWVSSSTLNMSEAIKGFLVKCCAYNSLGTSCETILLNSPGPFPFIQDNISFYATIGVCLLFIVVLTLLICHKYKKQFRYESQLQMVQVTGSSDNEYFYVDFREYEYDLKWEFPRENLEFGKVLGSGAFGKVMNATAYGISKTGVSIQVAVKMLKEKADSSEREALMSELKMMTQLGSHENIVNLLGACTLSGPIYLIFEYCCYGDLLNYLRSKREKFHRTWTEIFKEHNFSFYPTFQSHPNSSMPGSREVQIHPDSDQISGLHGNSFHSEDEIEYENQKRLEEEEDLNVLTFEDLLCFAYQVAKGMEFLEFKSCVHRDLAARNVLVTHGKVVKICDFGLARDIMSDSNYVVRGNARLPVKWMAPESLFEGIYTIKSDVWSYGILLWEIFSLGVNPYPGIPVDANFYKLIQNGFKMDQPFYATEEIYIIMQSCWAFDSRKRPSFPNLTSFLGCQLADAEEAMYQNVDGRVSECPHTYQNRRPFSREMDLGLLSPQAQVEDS
Particulars: Ba/F3 expressing FLT3-ITD; 72 hours; cell titer glo; read-out: IC50 (uM) FLT3-ITD. The procedure:
as §1

Assay [1] concerns the target T2, FLT3-ITD-F691L Ba/F3 cells (Homo sapiens, UniProt P36888, F691L, cells depend on it, form not given).
T2 sequence (P36888 1-993 F691L): T1 sequence (P36888 1-993) with F691L
The conditions noted are these: Ba/F3 expressing FLT3-ITD-F691L; 72 hours; cell titer glo; read-out: IC50 (uM) FLT3-ITD-F691L. The procedure:
as §1

SMILES strings stand for the structures. Numbering of substitutions follows the chain as printed. Structures can show the parent of a compound that is named as a salt. A value given as a limit tells only on which side of the number the result lay.

A word on the IC50: it is the concentration that gives 50% inhibition. On to `Cn1cc(CCc2cc(NC(N)=O)c(C(=O)N[C@H]3CCCCNC3)s2)cn1` [Example 52, (S)—N-(azepan-3-yl)-5-(2-(1-methyl-1H-pyrazol-4-yl)ethyl)-3-ureidothiophene-2-carboxamide trifluoroacetate], for which, in the assay on Parental Ba/F3 cells, the IC50 is greater than 100 µM. Moreover, the results for the GI50 (at FLT3-ITD Ba/F3 cells; in assay [1]) were 6.28 µM and greater than 100 µM, respectively.
For the compound `NC(=O)Nc1cc(CCc2cccc(F)c2)sc1C(=O)N[C@H]1CCCNC1` [Example 53], the IC50 with Parental Ba/F3 cells came to 44.5 µM. Besides, the GI50 on FLT3-ITD Ba/F3 cells came to 0.359 µM; in assay [1], 1.39 µM.
For the compound `NC(=O)Nc1cc(CCc2cccc(F)c2)sc1C(=O)N[C@H]1CCCCNC1` [Example 54, (S)—N-(azepan-3-yl)-5-(3-fluorophenethyl)-3-ureidothiophene-2-carboxamide], the IC50 in the assay on Parental Ba/F3 cells was greater than 33 µM. In addition, the GI50 at FLT3-ITD Ba/F3 cells was 1.93 µM; in assay [1] it was 7.47 µM.
